Patent US20250134870A1, “PATHWAY MODULATOR, PHARMACEUTICAL COMPOSITION HAVING SAME, USE THEREOF, AND THERAPEUTIC METHOD USING SAME” (Jiangsu Yahong Meditech Co., Ltd., priority 2021, published 2025)
Like-named read-outs stand apart in the source and are kept apart here.

What was measured:
[1] = tested on: 2,4-dinitrobenzenesulfonic acid (DNBS)-induced colitis; assay: DNBS-induced enteritis/colitis in rats: body weight and stool score (Example 10); assay type: in vivo, Wistar rats; details: positive control drug
Procedure: The 90 animals were randomly grouped on Day-1 (i.e., the day before the experiment) based on animal body weight to ensure that the body weight of each group of animals were similar, so as to reduce bias. Rats were fasted for 40 hours before the experiment and were injected subcutaneously with 5% glucose saline (10 mL/kg, once daily) during fasting. • Experimental grouping:
On Day 1 of the experiment, fasting rats were anesthetized by intraperitoneal injection with Zoletil (25 mg/kg Tiletamine and 25 mg/kg Zolazepam) and 5 mg/kg Xylazine.
In groups G2-G6, a hose was inserted from the anus to left colic flexure (about 8 cm from the anus) and colitis was induced by DNBS enema (0.5 mL/animal) in rats. The normal control group (G1) received 30% ethanol enema by the same process. The head of the animal after enema was lowered for 15 min, and then the animal was kept in Trendelenburg position until waked to avoid backflow of the enema fluid.
The percentage of body weight was calculated according to the following formula: (body weight on Day X-initial weight)/initial weight]×100%.
(2) Stool score: during the experiment, the stool state of rats was scored daily (0=normal, 1=wet/sticky, 2=loose, 3=liquid).

[2] = tested on: 2,4-dinitrobenzenesulfonic acid (DNBS)-induced colitis; assay: DNBS-induced colitis in rats: macroscopic evaluation of colon on Day 7 (colon length, weight, ulcer area, CW/CL, CW/BW, CW/CL/BW); assay type: in vivo, Wistar rats; details: for inhibition at 9 mg/kg: Rattus norvegicus, 168 h
Procedure: (3) Colon observation: after the end of the experiment, all animals were anesthetized with Zoletil (intravenous injection, 25 mg/kg) and the abdominal cavity was opened. Blood was collected from the abdominal aorta with EDTA anticoagulation (centrifugation conditions: 4° C., 2,000 g, 10 min). After the animals were sacrificed by bloodletting, the colon (from the cecum to the anus) was dissected and the colon length was measured immediately. The colon was longitudinally incised and rinsed until clean. Then the colon weight and ulcer area were recorded, and the colon was photographed as a whole and divided into three parts, among which two parts were stored at −80° C. after flash freezing with liquid nitrogen for MPO and cytokine detection, and the other part of colon was fixed with 10% neutral buffered formalin. If the ulcer was irregularly shaped, it could be considered as rectangular, and then its length and width were measured for ulcer area assessment. Ulcer area (cm^2)=ulcer length (cm)×ulcer width (cm).

[3] = tested on: 2,4-dinitrobenzenesulfonic acid (DNBS)-induced colitis; assay: DNBS-induced colitis in rats: pathological score of colon tissue (H&E); assay type: in vivo, Wistar rats
Description: The proximal, ulcer (corresponding sites can be taken, if there was no ulcer) and distal parts of the colon tissue fixed by neutral buffered formalin were embedded with paraffin, sectioned (thickness 5 μm), and histopathological score was given by H&E staining.

[4] = tested on: dextran sulfate sodium (DSS)-induced colitis; assay: DSS-induced colitis in mice: body weight, DAI score, colon density (Examples 1, 3); assay type: in vivo, C57BL/6J mice; details: for severity of DSS-induced colitis and disease activity: Nepicastat 30, Etamicastat 100, Zamicastat 100 mg/kg PO QD × 8 days (Test groups 1#, 4#, 7#) vs solvent group; for Colon density: experimental endpoint
Procedure: 8-10 week old female C57BL/6J mice purchased from Charles River Laboratories were used. The mice were housed in a room at constant temperature (20+2° C.) (5 mice per cage) with a 12-hour light-dark cycle. All protocols were approved by the Institutional Animal Care and Use Committee of WuXi AppTec. These mice were adapted to the housing conditions at the animal experiment center of WuXi AppTec for at least three days prior to the experiment. […] At the experimental endpoint (see hereinafter), mice were euthanized and endpoint samples were obtained. Mice in the normal group were not given 3% DSS aqueous solution to induce colitis and were free to drink blank water. […] The animal body weight and DAI score were assessed under double-blind conditions, that is, the researchers collected the body weight data of mice and observed and scored the stool characteristics and blood stools every day, without knowing the group and dosing regimen. The DAI score was the sum of the weight loss score, stool score and bleeding score. […] The data were analyzed by analysis of variance, specifically by using the following process: using Graph Pad Prism 6.0 software to carry out post-hoc Dunnett's multiple comparison test. […] Data were expressed as mean±S.E.M. The experimental endpoint was 24 hours after administration on Day 8 for the positive drug control group and the Test group 1 #to Test group 7 #of Example 1; the experimental endpoint of the normal group and the solvent group was the same as that of the positive drug control group and Test group 1 #to Test group 7 #.

[5] = tested on: mesenteric lymph node immune cell subpopulations; assay: Flow cytometry of immune cell subpopulations and cytokines in mesenteric lymph nodes of DSS colitis mice (Examples 2, 4); assay type: in vivo, C57BL/6J mice; details: 100 mg/kg PO QD × 8 days (Test group 7#) vs solvent group
Procedure: The experimental endpoint was 24 hours after administration on Day 8 for the positive drug control group and the Test group 1 #to Test group 7 #of Example 1; the experimental endpoint of the normal group and the solvent group was the same as that of the positive drug control group and Test group 1 #to Test group 7 #.
At the experimental endpoint, mesenteric lymphatic nodes were collected and treated as follows:
1) The mesenteric lymph nodes were gently grinded and filtered with a […] strainer (BD bioscience, Catalog No. 352350) to obtain a cell suspension, and the cells were counted.
2) The cells were suspended in a suspension solution (the suspension solution was prepared by the following process: diluting the cell activation mixture with a mixture of 90 v % 1640 medium and 10 v % fetal bovine serum to a concentration of 1×), the cell density was adjusted to 2.5×10^7/mL, and the cells were incubated at 37° C. for 5 hours. 3) The cells were washed with Dulbecco's Phosphate Buffered Saline, and stained with viable/dead stain (stain No. 12 in Table 5) at room temperature for 15 min to distinguish between viable cells and dead cells; the cells were washed with staining buffer (prepared by mixing fetal bovine serum and Dulbecco's Phosphate Buffered Saline at a volume ratio of 2:98), Fc block working solution (prepared by mixing Fc block and staining buffer at a volume ratio of 1:200) was added, and the cells were incubated at room temperature for 15 minutes.
4) The cells were surface labeled with 100 μL of antibody staining solution for flow cytometry without washing and incubated at 4° C. for 30 minutes.
5) The cells were washed once with staining buffer, 100 μL of cell fixative solution was added, and the cells were incubated at 4° C. overnight.
6) 200 μL of cell permeabilization solution was added and incubated at 4° C. for 30 minutes.
7) After washing with 250 μL of cell permeabilization solution, the cells were suspended with 100 μL of staining buffer and fluorescence was detected with a BD LSRFortessa instrument.
8) The cell subpopulations analyzed by flow cytometry included CD4+ T cell subpopulation, IL-17A+CD4+ T cell subpopulation, IFN-γ+CD4+ T cell subpopulation, TNF-α+CD4+ T cell subpopulation, CD25+FOXP3+ Treg cell subpopulation; CD8+ T cell subpopulation, IL-17A+CD8+ T cell subpopulation, IFN-γ+CD8+ T cell subpopulation, TNF-α+CD8+ T cell subpopulation; CD69+B220+ B cell subpopulation and NK1.1+CD107a+ NK cell subpopulation.

norepinephrine level = details: cited from earlier work; for brain-blood-barrier penetration: compared with Nepicastat; for effect on brain tissue (norepinephrine level) / norepinephrine level in peripheral sympathetic innervation tissues: rats with spontaneous hypertension
[6] = 1200 mg; 10 consecutive days; NCT02151994; cited from earlier work
[7] = tested on: systolic and diastolic blood pressure; details: 200 mg, phase II clinical study, cited from earlier work

Structure (SMILES) | Body weight on Day 7, g ([4]; 10 mg/kg PO QD × 8 days) | Body weight on Day 7/initial body weight, % ([4]; 10 mg/kg PO QD × 8 days) | Body weight on Day 8, g ([4]; 10 mg/kg PO QD × 8 days) | Body weight on Day 8/initial body weight, % ([4]; 10 mg/kg PO QD × 8 days) | DAI score on Day 8 ([4]; 10 mg/kg PO QD × 8 days) | Body weight on Day 7, g ([4]; 30 mg/kg PO QD × 8 days) | Body weight on Day 7/initial body weight, % ([4]; 30 mg/kg PO QD × 8 days) | Body weight on Day 8, g ([4]; 30 mg/kg PO QD × 8 days) | Body weight on Day 8/initial body weight, % ([4]; 30 mg/kg PO QD × 8 days) | DAI score on Day 8 ([4]; 30 mg/kg PO QD × 8 days) | Body weight on Day 7, g ([4]; 100 mg/kg PO QD × 8 days) | Body weight on Day 8, g ([4]; 100 mg/kg PO QD × 8 days) | Body weight on Day 8/initial body weight, % ([4]; 100 mg/kg PO QD × 8 days) | DAI score on Day 8 ([4]; 100 mg/kg PO QD × 8 days) | severity of DSS-induced colitis and disease activity [4] | Colon density ([4]; 10 mg/kg PO QD × 8 days) | Colon density ([4]; 30 mg/kg PO QD × 8 days) | brain-blood-barrier penetration (norepinephrine level) | effect on brain tissue (norepinephrine level) (norepinephrine level) | norepinephrine level in peripheral sympathetic innervation tissues (norepinephrine level) | further results
C[C@]12C=CC(=O)C=C1CC[C@@H]1[C@@H]2C(=O)C[C@@]2(C)[C@H]1CC[C@]2(O)C(=O)CO [Prednisone] | – | – | – | – | – | – | – | – | – | – | – | – | – | – | – | – | – | – | – | – | stool form score AUC [1]: significantly reduce; inhibition at 9 mg/kg ([2]; G3, 9 mg/kg PO QD × 7, read-out: IR1 (inhibition rate 1, CW/CL/BW)): 44.2%; inhibition at 9 mg/kg ([2]; G3, 9 mg/kg PO QD × 7, read-out: IR2 (inhibition rate 2, CW/BW)): 50.1%; inhibition at 9 mg/kg ([2]; G3, 9 mg/kg PO QD × 7, read-out: IR3 (inhibition rate 3, CW/CL)): 46.5%; BW ([2]; mean, G3, 9 mg/kg PO QD × 7): 162.92 g; CW/BW ×100 ([2]; mean, G3, 9 mg/kg PO QD × 7): 0.99; Ulcer area ([2]; mean, G3, 9 mg/kg PO QD × 7): 1.26 cm^2; Ulcer length ([2]; mean, G3, 9 mg/kg PO QD × 7): 0.77 cm; Ulcer width ([2]; mean, G3, 9 mg/kg PO QD × 7): 0.85 cm; colon weight ([2]; positive control drug): significantly reduce; Pathological score, Distal end, Damage ([3]; mean, G3, 9 mg/kg PO QD × 7): 1.33; Pathological score, Distal end, Inflammation ([3]; mean, G3, 9 mg/kg PO QD × 7): 2.00; Pathological score, Proximal end, Damage ([3]; mean, G3, 9 mg/kg PO QD × 7): 0.80; Pathological score, Proximal end, Inflammation ([3]; mean, G3, 9 mg/kg PO QD × 7): 1.73; Pathological score, Total score, Damage ([3]; mean, G3, 9 mg/kg PO QD × 7): 4.00; Pathological score, Total score, Inflammation ([3]; mean, G3, 9 mg/kg PO QD × 7): 6.07; Pathological score, Ulcer end, Damage ([3]; mean, G3, 9 mg/kg PO QD × 7): 1.87; Pathological score, Ulcer end, Inflammation ([3]; mean, G3, 9 mg/kg PO QD × 7): 2.33; inflammatory cell infiltration score of colon ulcer end ([3]; positive control drug): significantly reduce
Fc1cc(F)c2c(c1)C[C@@H](n1c(CCNCc3ccccc3)c[nH]c1=S)CO2 [Zamicastat] | 19.26 g | 91.68% | 18.37 g | 87.45% | 6.30 | 18.96 g | 91.04% | 17.78 g | 85.35% | 6.30 | 19.66 g | 18.75 g | 89.17% | 5.20 | ameliorated the severity of DSS-induced colitis and reduced disease activity | 35.04 mg/cm | 36.37 mg/cm | lower levels of brain-blood-barrier penetration | no effect on brain tissue | reduce the norepinephrine level in peripheral sympathetic innervation tissues | proportion of CD4+ T cell subpopulation [5]: reduce the proportion; proportion of CD25+FOXP3+ Treg cell subpopulation [5]: increase the proportion; secretion of IFN-γ by CD4+ T cell subpopulation [5]: reduce the secretion; secretion of IL-17A by CD4+ T cell subpopulation [5]: reduce the secretion; secretion of TNF-α by CD4+ T cell subpopulation [5]: reduce the secretion; safety [6]: relatively good safety
NCCc1c[nH]c(=S)n1[C@H]1COc2c(F)cc(F)cc2C1 [Etamicastat] | 19.18 g | 91.92% | 18.20 g | 87.27% | 6.20 | 19.48 g | 92.19% | 18.89 g | 89.13% | 6.56 | 20.08 g | 19.19 g | 91.63% | 5.00 | ameliorated the severity of DSS-induced colitis and reduced disease activity | 32.24 mg/cm | 34.23 mg/cm | lower levels of brain-blood-barrier penetration | no effect on brain tissue | reduce the norepinephrine level in peripheral sympathetic innervation tissues | tolerance and safety ([7]; 10 days of treatment): good tolerance and safety; systolic and diastolic blood pressure ([7]; after 10 days of treatment): reduced systolic and diastolic blood pressure in a dose-dependent manner
